Measurements as given in patent publication US12527762B2 (priority 2021, dated 2026).
Values joined by “and” are separate entries in the source; they are usually repeats but may differ in a detail not shown here. Equal values may be shown once. Read-outs that look alike come from different tables or passages of the source.

What was measured:
[1] = Artificial membrane permeability of camostat, side-bi-side cell system (GIT-0-Lipid on PVDF membrane); type: in vitro ADME
Description: As an artificial membrane, 200 μl of a GIT-0-Lipid solution was used by dropping on the center of a 25 mm hydrophobic PVDF membrane. 5 ml of a 37° C. pH 5.0 FeSSIF solution was taken and contained in a donor cell, and 20 mg of the sample was weighed and administered to the donor cell. The test was started after adding 5 ml of an ethyl alcohol. pH 7.4 PBS buffer (1:9, v/v) solution to an acceptor cell, and 200 μl of the solution was taken five times from the acceptor cell every predetermined time and used as a test solution. Then, the acceptor cell was filled with 1 ml of the ethyl alcohol: pH 7.4 PBS buffer (1:9, v/v) solution to maintain a total volume of 5 ml.

in vitro = details: African green monkey
SARS-CoV-2 = assay: microbe, parasite or virus in culture; type: cell-based
[2] = Solubility of niclosamide in pH 7 buffer solution (HPLC); type: physicochemical
Description: A pH 7 solution prepared by mixing 0.1 N potassium phosphate and 0.1 N sodium hydroxide was used as the pH 7 buffer solution. […] After 1 hour of stirring, 5 ml of a supernatant was filtered with a 0.45 μm PVDF filter, and then the amount of dissolved niclosamide was evaluated using the filtered solution as a sample.

[3] = system: ZR-75-1 hormone-positive breast cancer cell line; assay: Luminescent cell viability assay (CellTiter glo), subtype-specific breast cancer cell lines; type: cell-based; details: for IC50: ZR-75-1, hormone-positive breast cancer cell line; for IC50 fold lower than Tamoxifen: ZR-75-1 cells
[4] = system: MCF7/PR Paclitaxel resistant MCF7 cell line; assay: as above; type: cell-based
[5] = system: MDA-MB-231 triple negative breast cancer cell line; assay: as above; type: cell-based; details: for IC50: MDA-MB-231, triple negative breast cancer cell line; for IC50 fold lower than Cisplatin: MDA-MB-231 cells
[6] = system: MDA-MB-453 HER2-positive breast cancer cell line; assay: as above; type: cell-based
[7] = type: in vitro ADME; details: PAMPA
Description: The permeability of an artificial membrane (barrier membrane from PermeaPad, 25 mm) to niclosamide of the cocrystal of Example 17 of the present invention was evaluated using the side-bi-side cell system, and compared with that of the niclosamide single material. 5 ml of an FeSSIF solution (37° C.) at pH 6.5 added with 3% (w/w) Kolliphor ELP was taken and contained in a donor cell, and […] of each sample was weighed and administered to the donor cell. 5 ml of a PBS solution of pH 7.4 added with 20% (w/w) HP-β-CD was added to the acceptor cell, the test was started, and 200 μl of the solution was taken 5 times from the acceptor cell every predetermined time and used as the test solution. Then, the acceptor cell was filled with the PBS solution of pH 7.4 added with 1 ml of 20% (w/w) HP-p-CD, and the total volume was maintained at 5 ml.

[8] = system: HCC1419 HER2-positive breast cancer cell line; assay: Luminescent cell viability assay (CellTiter glo), subtype-specific breast cancer cell lines; type: cell-based; details: for IC50: HCC1419, HER2-positive breast cancer cell line; for IC50 fold lower than Herceptin: HCC1419 cells
[9] = system: HCC1937 triple negative breast cancer cell line; assay: as above; type: cell-based
[10] = system: PANC-1 pancreatic cancer cell line; details: value from literature, read-out: IC50 (positive control); cited from earlier work
[11] = system: MIAPACA-2 pancreatic cancer cell line; details: value from literature, read-out: IC50 (positive control); cited from earlier work
[12] = system: Huh-7 liver cancer cell line; details: value from literature, read-out: IC50 (positive control); cited from earlier work
[13] = system: Hep-3B liver cancer cell line; details: value from literature, read-out: IC50 (positive control); cited from earlier work
[14] = system: MDA-MB-231 breast cancer cell line; assay: Inhibition of cancer cell proliferation, CCK-8 assay; type: cell-based
[15] = system: MCF-7 breast cancer cell line; assay: as above; type: cell-based
[16] = system: A-549 non-small cell lung cancer cell line; assay: as above; type: cell-based
[17] = system: MIAPACA-2 pancreatic cancer cell line; assay: as above; type: cell-based
[18] = system: Huh-7 liver cancer cell line; assay: as above; type: cell-based
[19] = system: PANC-1 pancreatic cancer cell line; assay: as above; type: cell-based
[20] = system: H-1299 non-small cell lung cancer cell line; assay: as above; type: cell-based
[21] = system: Hep-3B liver cancer cell line; assay: as above; type: cell-based
[22] = system: MDA-MB-231 breast cancer cell line; details: value from literature, read-out: IC50 (positive control); cited from earlier work
[23] = system: MCF-7 breast cancer cell line; details: value from literature, read-out: IC50 (positive control); cited from earlier work
[24] = Severe acute respiratory syndrome coronavirus 2, SARS-CoV-2 in Vero cells, 24 hours after infection, read-out: IC50
[25] = SARS-CoV-2 in Vero cells, 24 hours after infection, read-out: IC50

CN(C)C(=O)COC(=O)Cc1ccc(OC(=O)c2ccc(NC(=N)N)cc2)cc1.O=C(Nc1ccc([N+](=O)[O-])cc1Cl)c1cc(Cl)ccc1O [Example 21]
Cumulative permeation amount J ([1]; camostat, donor pH 5.0 FeSSIF 37° C., acceptor ethyl alcohol:pH 7.4 PBS (1:9)): 876.29 μg/ml/cm^2/h and 876.26 μg/ml/cm^2/h | cumulative permeation amount of camostat, fold better than camostat single material ([1]; cocrystal vs camostat single material): 1.56 fold

CCN(CC)CCCC(C)Nc1ccnc2cc(Cl)ccc12 (stereo not shown) [Chloroquine]
CC50 (in vitro): > 150 µM | IC50 (SARS-CoV-2; [24]): 7.47 µM

Cc1cccc(C)c1OCC(=O)N[C@@H](Cc1ccccc1)[C@@H](O)C[C@H](Cc1ccccc1)NC(=O)[C@H](C(C)C)N1CCCNC1=O [Lopinavir]
CC50 (in vitro): > 50 µM | IC50 fold higher than the IC50 of the cocrystal (SARS-CoV-2; SARS-CoV-2 in Vero cells): about 64.38 fold | SI (selectivity index, CC50/IC50) (SARS-CoV-2; SARS-CoV-2 in Vero cells): 4.85 | IC50 (SARS-CoV-2; [24]): 10.3 µM

CN(C)C(=O)COC(=O)Cc1ccc(OC(=O)c2ccc(NC(=N)N)cc2)cc1.O=C(Nc1ccc([N+](=O)[O-])cc1Cl)c1cc(Cl)ccc1O [Example 17]
CC50 (Vero cells): > 50 µM | pH 7 solubility [2]: 55.2 μg/ml | IC50 [3]: 6.29 µM | IC50 fold lower than Tamoxifen [3]: 1.4 fold | IC50 [4]: 5.82 µM | IC50 [5]: 2250 nM | IC50 fold lower than Cisplatin [5]: 11 fold | IC50 [6]: 7.48 µM | Cumulative permeation amount of drug [7]: 2.03 μg/ml/cm^2/h | cumulative permeation amount of niclosamide, fold better than niclosamide single material [7]: 1.72 fold | SI (selectivity index, CC50/IC50) (SARS-CoV-2; SARS-CoV-2 in Vero cells): 313 | IC50 (SARS-CoV-2; [25]): 0.16 µM | IC50 [8]: 1500 nM | IC50 fold lower than Herceptin [8]: 16 fold | IC50 [9]: 4.55 µM

Nc1ccn([C@@H]2O[C@H](CO)[C@@H](O)C2(F)F)c(=O)n1 [Gemcitabine]
IC50 [10]: 42.9 µM | IC50 [11]: 92.7 µM

CC(=O)O[C@H]1C(=O)[C@@]2(C)[C@H]([C@H](OC(=O)c3ccccc3)[C@]3(O)C[C@H](OC(=O)[C@H](O)[C@@H](NC(=O)c4ccccc4)c4ccccc4)C(C)=C1C3(C)C)[C@]1(OC(C)=O)CO[C@@H]1C[C@@H]2O [Paclitaxel, reference compound]
IC50 ([4]; Homo sapiens): 13.7 µM

CNC(=O)c1cc(Oc2ccc(NC(=O)Nc3ccc(Cl)c(C(F)(F)F)c3)cc2)ccn1 [Sorafenib]
IC50 [12]: 6 µM | IC50 [13]: 12.3 µM

O=C(Nc1ccc([N+](=O)[O-])cc1Cl)c1cc(Cl)ccc1O [Niclosamide]
pH 7 solubility [2]: hardly detected | pH 7 solubility ([2]; 1 h): <0.3 μg/ml | Cumulative permeation amount of drug ([7]; 4 mg/ml): 1.18 μg/ml/cm^2/h

N.N.[Cl][Pt][Cl] [Cisplatin, reference compound]
IC50 [5]: ≥ 25000 nM | IC50 [9]: 12.3 µM

CN(C)C(=O)COC(=O)Cc1ccc(OC(=O)c2ccc(NC(=N)N)cc2)cc1.O=C(Nc1ccc([N+](=O)[O-])cc1Cl)c1cc(Cl)ccc1O [Example 1]
CC50 (Vero cells): > 50 µM | IC50 [3]: 5.37 µM | IC50 fold lower than Tamoxifen [3]: 1.7 fold | IC50 ([14]; MDA-MB-231, 48 hours drug treatment): 126 nM | IC50 fold lower than docetaxel ([14]; MDA-MB-231 cells): 5 fold | IC50 [4]: 5.69 µM | IC50 [5]: 1750 nM | IC50 fold lower than Cisplatin [5]: 14 fold | IC50 ([15]; MCF-7, 48 hours drug treatment): 428 nM | IC50 fold lower than docetaxel ([15]; MCF-7 cells): 1.7 fold | IC50 [6]: 7.46 µM | IC50 ([16]; A-549, 48 hours drug treatment): 976 nM | IC50 fold lower than gefitinib ([16]; A-549 cells): 13 fold | IC50 fold lower than gemcitabine ([17]; MIAPACA-2 cell line): 127 fold | IC50 ([17]; MiaPaCa-2, 48 hours drug treatment): 729 nM | SI (selectivity index, CC50/IC50) (SARS-CoV-2; SARS-CoV-2 in Vero cells): 306 | IC50 (SARS-CoV-2; [25]): 0.16 µM | IC50 ([18]; Huh-7, 48 hours drug treatment): 134 nM | IC50 fold lower than Sorafenib ([18]; Huh-7 cells): 44 fold | IC50 ([19]; PANC-1, 48 hours drug treatment): 99.3 nM | IC50 fold lower than gemcitabine ([19]; PANC-1 cell line): 432 fold | IC50 ([20]; H-1299, 48 hours drug treatment): 381 nM | IC50 fold lower than gefitinib ([20]; H-1299 cells): 45 fold | IC50 [8]: 1270 nM | IC50 fold lower than Herceptin [8]: 19 fold | IC50 fold lower than Sorafenib ([21]; Hep-3B cells): 297 fold | IC50 ([21]; Hep-3B, 48 hours drug treatment): 41.3 nM | IC50 [9]: 4.98 µM

CC(=O)O[C@@]12CO[C@@H]1C[C@H](O)[C@@]1(C)C(=O)[C@H](O)C3=C(C)[C@@H](OC(=O)[C@H](O)[C@@H](NC(=O)OC(C)(C)C)c4ccccc4)C[C@@](O)([C@@H](OC(=O)c4ccccc4)[C@H]21)C3(C)C [Docetaxel, reference compound]
IC50 ([3]; Homo sapiens): 24.2 µM | IC50 ([4]; Homo sapiens): 11.4 µM | IC50 ([5]; Homo sapiens): ≥ 25000 nM | IC50 ([6]; Homo sapiens): ≥ 25 µM | IC50 [22]: 635 nM | IC50 ([8]; Homo sapiens): ≥ 25000 nM | IC50 [23]: 763 nM | IC50 ([9]; Homo sapiens): ≥ 25 µM

CCC(CC)COC(=O)[C@H](C)N[P@](=O)(OC[C@H]1O[C@@](C#N)(c2ccc3c(N)ncnn23)[C@H](O)[C@@H]1O)Oc1ccccc1 [Remdesivir]
CC50 (in vitro): > 50 µM | IC50 fold higher than the IC50 of the cocrystal (SARS-CoV-2; SARS-CoV-2 in Vero cells): about 21.75 fold | SI (selectivity index, CC50/IC50) (SARS-CoV-2; SARS-CoV-2 in Vero cells): 14.35 | IC50 (SARS-CoV-2; Severe acute respiratory syndrome coronavirus 2, Vero, 24 h): 3.48 µM
